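Method: 48-hour compound exposure of cells in 96-well plates, five concentrations, linear interpolation of endpoints. The concentration for 50% growth inhibition is given as GI50.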 Active and inactive are the calls of the source. Rule as the data show it: active = GI50 up to about 1.1 µM and inactive = higher.
What was measured:
Assay in all cases: NCI-60 cell line screen, 48 h
MDA-MB-231 = system: MDA-MB-231
786-0 = system: 786-0
LOX IMVI = system: LOX IMVI
NCI/ADR-RES = system: NCI/ADR-RES
MDA-MB-435 = system: MDA-MB-435
MCF7 = system: MCF7
K562 = system: K562
SNB-19 = system: SNB-19
SNB-75 = system: SNB-75
SF-268 = system: SF-268
SF-539 = system: SF-539
SN12C = system: SN12C
A549 = system: A549
DU-145 = system: DU-145
NCI-H522 = system: NCI-H522
Hs-578T = system: Hs-578T
RPMI-8226 = system: RPMI-8226
CCRF-CEM = system: CCRF-CEM
UACC-257 = system: UACC-257
UO-31 = system: UO-31
T47D = system: T47D
SF-295 = system: SF-295
UACC-62 = system: UACC-62
HCC 2998 = system: HCC 2998
Malme-3M = system: Malme-3M
COLO 205 = system: COLO 205
NCI-H226 = system: NCI-H226
OVCAR-4 = system: OVCAR-4
SR = system: SR
EKVX = system: EKVX
OVCAR-8 = system: OVCAR-8
BT-549 = system: BT-549
TK-10 = system: TK-10
HCT-116 = system: HCT-116
A498 = system: A498
RXF 393 = system: RXF 393
SK-MEL-5 = system: SK-MEL-5
HCT-15 = system: HCT-15
MOLT-4 = system: MOLT-4
HT-29 = system: HT-29
SK-MEL-28 = system: SK-MEL-28
NCI-H23 = system: NCI-H23
KM12 = system: KM12
HOP-62 = system: HOP-62
ACHN = system: ACHN
M14 = system: M14
NCI-H460 = system: NCI-H460
PC-3 = system: PC-3
SK-OV-3 = system: SK-OV-3
OVCAR-5 = system: OVCAR-5
CAKI-1 = system: CAKI-1
SW-620 = system: SW-620
OVCAR-3 = system: OVCAR-3
U-251 = system: U-251
MDA-N = system: MDA-N
SK-MEL-2 = system: SK-MEL-2
HL-60 = system: HL-60
HOP-92 = system: HOP-92
IGROV-1 = system: IGROV-1

Measured: GI50

CCC(C)C(NC(=O)C(CCCC[N+](=N)N)NC(=O)C(CCCC[N+](=N)N)NC(=O)c1ccc(OC)cc1)C(=O)NC(CCCC[N+](=N)N)C(=O)N1CCCC1C(=O)NC(CCCCN)C(=O)NC(CC(C)C)C(N)=O (configuration not stated)
inactive: MDA-MB-231 > 100 µM | 786-0 > 100 µM | LOX IMVI > 100 µM | NCI/ADR-RES > 100 µM | MDA-MB-435 > 100 µM | MCF7 > 100 µM | K562 > 100 µM | SNB-19 > 100 µM | SNB-75 > 100 µM | SF-268 > 100 µM | SF-539 > 100 µM | SN12C > 100 µM | A549 > 100 µM | DU-145 > 100 µM | NCI-H522 > 100 µM | Hs-578T > 100 µM | RPMI-8226 > 100 µM | CCRF-CEM > 100 µM | UACC-257 > 100 µM | UO-31 > 100 µM | T47D > 100 µM | SF-295 > 100 µM | UACC-62 > 100 µM | HCC 2998 > 100 µM | Malme-3M > 100 µM | COLO 205 > 100 µM | NCI-H226 > 100 µM | OVCAR-4 > 100 µM | SR > 100 µM | EKVX > 100 µM | OVCAR-8 > 100 µM | BT-549 > 100 µM | TK-10 > 100 µM | HCT-116 > 100 µM | A498 > 100 µM | RXF 393 > 100 µM | SK-MEL-5 > 100 µM | MOLT-4 > 100 µM | HT-29 > 100 µM | SK-MEL-28 > 100 µM | NCI-H23 > 100 µM | KM12 > 100 µM | HOP-62 > 100 µM | ACHN > 100 µM | M14 > 100 µM | NCI-H460 > 100 µM | PC-3 > 100 µM | SK-OV-3 > 100 µM | OVCAR-5 > 100 µM | CAKI-1 > 100 µM | SW-620 > 100 µM | OVCAR-3 > 100 µM | U-251 > 100 µM | MDA-N > 100 µM
> 100 µM: HCT-15

N#CCCSC(=S)C1CCCC1=N (configuration not stated)
> 100 µM: HCT-15
inactive: MDA-MB-231 > 100 µM | 786-0 > 100 µM | NCI/ADR-RES > 100 µM | MDA-MB-435 > 100 µM | MCF7 > 100 µM | K562 > 100 µM | SNB-19 > 100 µM | SNB-75 3.88 µM | SF-268 > 100 µM | SF-539 > 100 µM | SN12C > 100 µM | A549 > 100 µM | DU-145 > 100 µM | NCI-H522 > 100 µM | Hs-578T > 100 µM | RPMI-8226 > 100 µM | SK-MEL-2 > 100 µM | UACC-257 > 100 µM | UO-31 > 100 µM | T47D 36 µM | SF-295 > 100 µM | UACC-62 > 100 µM | Malme-3M > 100 µM | COLO 205 > 100 µM | HL-60 > 100 µM | NCI-H226 > 100 µM | OVCAR-4 > 100 µM | EKVX > 100 µM | OVCAR-8 > 100 µM | BT-549 > 100 µM | TK-10 > 100 µM | HCT-116 > 100 µM | A498 > 100 µM | RXF 393 42.4 µM | SK-MEL-5 > 100 µM | MOLT-4 > 100 µM | HT-29 > 100 µM | SK-MEL-28 > 100 µM | NCI-H23 > 100 µM | KM12 > 100 µM | HOP-62 > 100 µM | ACHN > 100 µM | M14 > 100 µM | HOP-92 > 100 µM | NCI-H460 > 100 µM | PC-3 > 100 µM | SK-OV-3 > 100 µM | IGROV-1 > 100 µM | OVCAR-5 > 100 µM | CAKI-1 > 100 µM | SW-620 > 100 µM | OVCAR-3 > 100 µM | U-251 > 100 µM | MDA-N > 100 µM

Cc1cccc(C)c1NC(=O)C(=O)C(c1ccccc1Cl)S(=O)(=O)Cc1ccccc1Cl (configuration not stated)
inactive: MDA-MB-231 31.1 µM | 786-0 27.7 µM | LOX IMVI > 100 µM | NCI/ADR-RES > 100 µM | MDA-MB-435 > 100 µM | MCF7 > 100 µM | K562 > 100 µM | SNB-19 41.5 µM | SNB-75 11.2 µM | SF-268 22.9 µM | SF-539 16 µM | SN12C > 85.5 µM | A549 > 100 µM | DU-145 > 100 µM | NCI-H522 > 100 µM | Hs-578T 41.4 µM | RPMI-8226 > 100 µM | SK-MEL-2 > 83.8 µM | CCRF-CEM > 100 µM | UACC-257 > 100 µM | UO-31 > 100 µM | T47D > 100 µM | SF-295 23.7 µM | UACC-62 31.7 µM | HCC 2998 > 100 µM | COLO 205 > 100 µM | NCI-H226 > 100 µM | OVCAR-4 > 100 µM | SR > 100 µM | EKVX > 100 µM | OVCAR-8 > 37.8 µM | BT-549 35.7 µM | TK-10 > 61.2 µM | HCT-116 > 82.2 µM | RXF 393 29.8 µM | SK-MEL-5 > 100 µM | MOLT-4 > 100 µM | HT-29 > 100 µM | SK-MEL-28 > 100 µM | NCI-H23 34.5 µM | KM12 > 100 µM | HOP-62 18 µM | ACHN 53.3 µM | M14 > 100 µM | HOP-92 18.2 µM | NCI-H460 > 100 µM | PC-3 > 100 µM | SK-OV-3 > 29.4 µM | IGROV-1 > 62.4 µM | OVCAR-5 > 100 µM | CAKI-1 39.3 µM | SW-620 > 100 µM | OVCAR-3 > 100 µM | U-251 40.6 µM | MDA-N > 100 µM
active: HL-60 0.236 µM
> 100 µM: HCT-15

From ChEMBL document CHEMBL1201862, “PubChem BioAssay data set” (2004)
